Reference: patent US7893023B2, “Prodrugs activated by plasmin and their use in cancer chemotherapy” (priority 2000, dated 2011)
Where two headings read alike, the source gives them in different places.

Key:
[1] = tested on: OF-1 mice; conditions: obtained under the same conditions, known value; cited from earlier work
[2] = tested on: B16-B16 murine melanoma
Description: Male C57-B16 black mice were 5 weeks old upon delivery. The body weight of the animals was approximately 20 g at the beginning of the test (See General Methods, Section O).
The animals were divided in eight groups (5 mice per group). Confluent murine melanoma B16-B16 cells (See General Methods, Section E.) were washed twice with PBS and EDTA (See General Methods, Section F.) twice and detached with trypsin (2 min incubation at 37° C.), that was thereafter neutralized by DMEM-F12 (containing 10% of calf serum). The cells were centrifuged for 5 min at 300 g. The pellet was resuspended twice in the DMEM-F12 without serum and centrifuged 5 min at 300 g.
The number of cells per ml of DMEM-F12 was then estimated (Brucker chamber) and the dilution of 2.5×10^5 cells/ml prepared. Each animal received 200 μl of this suspension (5.0×10^4 cells) in its tail vein. The day of injection was considered day 0 of the study. […] Animals were weighed on days 0, 1, 3, 6, 8 and 14. Their behavior and eventual clinical signs were also noted. All animals were sacrificed on day 14 and autopsied.
The lung lobes were fixed in a Bouin's solution (picric acid: formaldehyde, 40%: acetic acid, 15:5:1, v/v). Every lobe immersed in the fixing solution in a Petri flask was uniformly lighted against an opaque black background. Pictures of the front and back side of every lobe were taken with the help of a light microscope, scanned and digitized. The relative surface occupied by B116-B16 colonies was then estimated with the Scion Image Program.
The individual mean values were analyzed with the Scheffe's F-test to evaluate the statistical significance of differences observed between the groups.

[3] = tested on: LS174T colon tumor xenografts; assay: Chemotherapeutic activity in the LS174T human colon tumor xenograft model; assay type: in vivo, mice
From the text: Animals were kept under pathogen-free conditions with food and water supplied ad libitum, and kept for about one week before implantation of the tumors. Fragments (˜2 mm) of tumors grown in nude mice were implanted subcutaneously in both flanks of the mice. Tumors were generally allowed to grow to attain a diameter of 5-6 mm each (approximately two weeks).
The mice weighed 20.0-25.0 g at the beginning of the study. They were selected and assigned to groups in order to have equally distributed tumor volumes in the different groups. In each group, mice were labeled individually. Treatments were assigned randomly to those groups.
All dosing solutions were prepared the day of injection by dissolution in water ( 1/10 of the expected final volume) and further dilution with 0.9% (w/v) NaCl. The concentration of these solutions was checked (A475 nm determination) after sterilization by filtration (0.22 μm) and adjusted to the final required value using sterile 0.9% (w/v) NaCl).
Treatments were administered by the i.p. route. The mice received a constant volume (10 μl/g) of either saline (control group) or drug. Mortality and clinical signs were recorded up to 4 hours post-treatment on dosing days, and daily thereafter. Their behavior was equally noted. Individual body weights were generally recorded daily until day 14 and at least twice a week thereafter.
Tumor growth was monitored by two-dimensional measurements using calipers and a precision of 0.5 mm. Tumor volumes were calculated according to the following formula: Vt=[length×(width)^2]/2
Median relative tumor volumes (RTV) were calculated as tumor volumes determined at individual days divided by tumor volumes on day 0. For treated groups, growth inhibition was estimated as the percentage ratio of median RTV of treated (T) mice versus controls (C) on each day of tumor treatment. T/C(%)=[Median RTV(treated group)/Median RTV(control group)]×100
The minimal T/C value (%) for each treatment was used as a parameter for maximum efficacy. Duration of growth inhibition was assessed by considering growth delays (T-C) for one (200%) and two (400%) doublings of the median RTV).
To determine the statistical significance of any difference in median RTV between two groups, the Mann-Whitney test was used. The test was conducted at a p level of 0.05 (two tailed) using the GraphPad Prism 3.00 software.
Female Swiss nude mice were 5 weeks old upon delivery (See General Methods, Section O). They were kept under pathogen-free conditions with food and water supplied ad libitum, and kept for about one week before implantation of the tumors. Fragments (˜2 mm) of LS174T tumors grown in nude mice were implanted subcutaneously in both flanks of the mice used in the study. Tumors were left to grow for 17 days. At that time, the mice weighed about 20.5-26.5 g.
Mice were then selected and assigned to groups in order to have equally distributed tumor volumes in different groups (5-6 mice, 9-10 tumors/group). The dose levels of Compound II, DOX used in the study, were selected on the basis of a lethality study previously conducted on OF-1 normal mice. The dose of DOX was based on previous chemotherapy experiments performed in nude mice with the same dosing schedule.
Treatments were administered by the i.p. route on days 0, 1, 2, 3 and 4, the mice receiving a constant volume (10 μl/g) of either saline or the different dosing solutions. DOX was used at 3.8 μmol/kg, Compound II, DOX was used at 25.9 μmol/kg and 34.5 μmol/kg. Clinical signs (recorded 0.5, 1, 2 and 4 hours after dosing and daily between dosing days) and body weights (recorded on each day of tumor measurement) were used to assess treatment toxicity, tumor growth was monitored on days 7, 12, 15, 19, 22, 26, 29, 33 and 36 by two-dimensional measurements using calipers and a precision of 0.5 mm.

[4] = DOX 3.8 μmol/kg, Compound II, DOX lower dosage 25.9 μmol/kg, i.p. days 0-4

## COc1cccc2c1C(=O)c1c(O)c3c(c(O)c1C2=O)C[C@@](O)(C(=O)CO)C[C@@H]3O[C@H]1C[C@H](N)[C@H](O)[C@H](C)O1 [DOX, Doxorubicin]
[1]
  LD50: 4.1 µmol/kg
[2]; 5.2 μmol/kg i.p. days 1 and 3, day 14
  lung surface occupied by B16-B16 metastases: 44.0±6.3%
[2]; 5.2 μmol/kg, day 14
  mean body weight, % of initial: 104.7%
[2]; 8.6 μmol/kg i.p. days 1 and 3, day 14
  lung surface occupied by B16-B16 metastases: 23.4±5.7%
[2]; 8.6 μmol/kg, end of study
  mean body weight, % of initial: 110%
[2]; 5.2 and 8.6 μmol/kg
  activity on lung metastases: did not show any significant activity
[3]; DOX 3.8 μmol/kg i.p. days 0-4
  antitumor activity: total lack of activity
  tumor regression: No tumor regression
[3]; [4]
  treatment-related mortality: No treatment-related mortality
  weight loss: no significant weight loss
